Data: PMC8846605 (European journal of medicinal chemistry, 2021)
Each block holds one compound with its values, some of them ahead of it.

Tests used:
MCF7 cells = assay: CS-BLI cell viability assay, MCF7; format: cell-based
[1] = molecular target: eIF4E (GST-eIF4E) / fluorescein-labelled eIF4G peptide (Homo sapiens, UniProt P06730); assay: Fluorescence polarization assay for displacement of eIF4G peptide from eIF4E; format: binding; settings: three concentrations: 33, 100 and 300 μM
Kelly cells proteome = assay: Global quantitative proteomics in Kelly cells; format: cell-based, human; settings: 1 μM, 5 hours, relative to DMSO
Cereblon (CRBN) = Cereblon (CRBN) (Homo sapiens, UniProt Q96SW2); assay: Cellular Cereblon engagement assay; format: cell-based
Cereblon (CRBN), sequence (Q96SW2 whole entry): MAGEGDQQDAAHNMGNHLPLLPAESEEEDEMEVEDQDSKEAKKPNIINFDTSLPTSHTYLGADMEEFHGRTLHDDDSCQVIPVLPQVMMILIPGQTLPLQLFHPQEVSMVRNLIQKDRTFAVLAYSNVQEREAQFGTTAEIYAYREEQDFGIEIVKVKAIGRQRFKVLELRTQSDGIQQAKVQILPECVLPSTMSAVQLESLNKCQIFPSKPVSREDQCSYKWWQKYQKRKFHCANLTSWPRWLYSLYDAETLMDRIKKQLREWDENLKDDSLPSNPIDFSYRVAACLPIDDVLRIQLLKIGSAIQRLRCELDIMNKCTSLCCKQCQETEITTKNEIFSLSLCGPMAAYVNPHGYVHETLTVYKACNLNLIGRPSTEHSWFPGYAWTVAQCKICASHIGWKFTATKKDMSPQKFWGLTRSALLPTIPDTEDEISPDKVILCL

GB1-eIF4E = GB1-eIF4E (Homo sapiens, UniProt P06730); assay: Solution NMR titration; settings: 15N-labelled GB1-eIF4E 100 μM, compound 50, 100 and 300 μM
GB1-eIF4E, sequence (P06730 whole entry): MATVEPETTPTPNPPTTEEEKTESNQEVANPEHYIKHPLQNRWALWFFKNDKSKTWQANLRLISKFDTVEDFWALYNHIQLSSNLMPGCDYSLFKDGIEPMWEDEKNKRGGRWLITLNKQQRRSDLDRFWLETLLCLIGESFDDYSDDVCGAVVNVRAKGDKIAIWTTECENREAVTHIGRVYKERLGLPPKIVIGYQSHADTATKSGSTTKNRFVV

eIF4E = eIF4E (Homo sapiens, UniProt P06730); assay: eIF4E degradation in HEK293T cells by immunoblotting; format: cell-based; settings: 0.1-10 μM for 24 h, and 1 μM for 0.5 h to 24 h
eIF4E, sequence (P06730 whole entry): as above

eIF4E (GST-eIF4E) / fluorescein-labelled eIF4G peptide, sequence (P06730 whole entry): as above

- decrease in viability (IC50) at 72 h as compared to 24 h (MCF7 cells): 2 fold
Compound: O=C(O)C(Cc1ccccc1[N+](=O)[O-])=NNc1nc(-c2ccc(Cl)c(Cl)c2)cs1 [4EGI-1, reference compound]

Compound: O=C(COc1cccc2c1C(=O)N(C1CCC(=O)NC1=O)C2=O)NCCCCNC(=O)Cc1sc(N/N=C(\Cc2ccccc2[N+](=O)[O-])C(=O)O)nc1-c1ccc(Cl)c(Cl)c1 (centres unmarked) [d4E-1]
- displacement of the 4G peptide compared with 4EGI-1 [1]: displaced the 4G peptide in a similar manner

Compound: C/C(=N\Nc1nc(-c2ccc(-c3ccccc3)cc2)cs1)C(=O)NCCCCNc1cccc2c1C(=O)N(C1CCC(=O)NC1=O)C2=O (centres unmarked) [d4E-2]
- change in protein expression, IMiD neo-substrates (Kelly cells proteome): downregulation of C2H2 zinc finger targets, SALL4, ZNF692 and ZNF827

- fold less active than d4E-2 in cellular CRBN engagement (Cereblon (CRBN)): approximately 8 fold
Compound: O=C1CCC(N2C(=O)c3cccc(NCCCCNC(=O)/C(=N\Nc4nc(-c5ccc(-c6ccccc6)cc5)cs4)c4ccccc4[N+](=O)[O-])c3C2=O)C(=O)N1 (centres unmarked) [d4E-3]

Compound: C/C(=N\Nc1nc(-c2ccc(-c3ccccc3)cc2)cs1)C(=O)NCCNc1cccc2c1C(=O)N(C1CCC(=O)NC1=O)C2=O (centres unmarked) [d4E-4]
- chemical shift perturbations (CSPs) on titration (GB1-eIF4E): Significant CSPs were observed in both cases at the binding interface
- degradation of eIF4E by immunoblotting (eIF4E): neither experiment showed significant degradation of eIF4E

Compound: C/C(=N\Nc1nc(-c2ccc(Cl)c(Cl)c2)c(CC(=O)NCCNc2cccc3c2C(=O)N(C2CCC(=O)NC2=O)C3=O)s1)C(=O)OCOC(=O)C(C)(C)C (centres unmarked) [d4E-6]
- degradation of eIF4E by immunoblotting (eIF4E): neither experiment showed significant degradation of eIF4E

- decrease in viability (IC50) at 72 h as compared to 24 h (MCF7 cells): more than 3 fold
Compound: O=C(O)/C(Cc1ccccc1[N+](=O)[O-])=N\Nc1nc(-c2ccc(-c3ccccc3)cc2)cs1 [i4EG-BiP]
